# Experimental data reported in ChEMBL document CHEMBL4138123, “Design, synthesis and biological evaluation of novel pyrazolochalcones as potential modulators of PI3K/Akt/mTOR pathway and inducers of apoptosis in breast cancer cells” (Eur J Med Chem, 2017).
# Legend:
# Assay type in all cases: functional
# CCRF-CEM [1] = assay: Cytotoxicity against human CCRF-CEM cells assessed as growth inhibition after 48 hrs by sulforhodamine B assay
# K562 = assay: Cytotoxicity against human K562 cells assessed as growth inhibition after 48 hrs by sulforhodamine B assay; conditions: K562, 48 h
# NCI-H226 = assay: Cytotoxicity against human NCI-H226 cells assessed as growth inhibition after 48 hrs by sulforhodamine B assay; conditions: NCI-H226, 48 h
# SF-539 [2] = assay: Cytotoxicity against human SF539 cells assessed as growth inhibition after 48 hrs by sulforhodamine B assay; conditions: SF-539, 48 h
# SK-MEL-2 = assay: Cytotoxicity against human SK-MEL-2 cells assessed as growth inhibition after 48 hrs by sulforhodamine B assay; conditions: SK-MEL-2, 48 h
# UACC-62 [3] = assay: Cytotoxicity against human UACC62 cells assessed as growth inhibition after 48 hrs by sulforhodamine B assay; conditions: UACC-62, 48 h
# OVCAR-4 = assay: Cytotoxicity against human OVCAR4 cells assessed as growth inhibition after 48 hrs by sulforhodamine B assay; conditions: OVCAR-4, 48 h
# RXF 393 [4] = assay: Cytotoxicity against human RXF393 cells assessed as growth inhibition after 48 hrs by sulforhodamine B assay; conditions: RXF 393, 48 h
# MDA-MB-231 = assay: Cytotoxicity against human MDA-MB-231 cells assessed as growth inhibition after 48 hrs by sulforhodamine B assay; conditions: MDA-MB-231, 48 h
# BT-549 = assay: Cytotoxicity against human BT549 cells assessed as growth inhibition after 48 hrs by sulforhodamine B assay; conditions: BT-549, 48 h
# CCRF-CEM [5] = assay: Cytotoxicity against human CCRF-CEM cells assessed as cell growth at 0.01 uM after 48 hrs by sulforhodamine B assay relative to control; conditions: read-out: Activity
# SK-OV-3 = assay: Cytotoxicity against human SKOV3 cells assessed as cell growth at 0.01 uM after 48 hrs by sulforhodamine B assay relative to control; conditions: SK-OV-3, 48 h, read-out: Activity
# IGROV-1 = assay: Cytotoxicity against human IGROV1 cells assessed as cell growth at 0.01 uM after 48 hrs by sulforhodamine B assay relative to control; conditions: IGROV-1, 48 h, read-out: Activity
# SK-MEL-5 = assay: Cytotoxicity against human SK-MEL-5 cells assessed as cell growth at 0.01 uM after 48 hrs by sulforhodamine B assay relative to control; conditions: SK-MEL-5, 48 h, read-out: Activity
# Malme-3M [6] = assay: Cytotoxicity against human MALME-3M cells assessed as cell growth at 0.01 uM after 48 hrs by sulforhodamine B assay relative to control; conditions: read-out: Activity
# TK-10 = assay: Cytotoxicity against human TK10 cells assessed as cell growth at 0.01 uM after 48 hrs by sulforhodamine B assay relative to control; conditions: TK-10, 48 h, read-out: Activity
# CCRF-CEM [7] = assay: Cytotoxicity against human CCRF-CEM cells assessed as cell growth at 0.1 uM after 48 hrs by sulforhodamine B assay relative to control; conditions: read-out: Activity
# HCT-116 [8] = assay: Cytotoxicity against human HCT116 cells assessed as cell growth at 0.1 uM after 48 hrs by sulforhodamine B assay relative to control; conditions: HCT-116, 48 h, read-out: Activity
# HCT-15 = assay: Cytotoxicity against human HCT15 cells assessed as cell growth at 0.1 uM after 48 hrs by sulforhodamine B assay relative to control; conditions: HCT-15, 48 h, read-out: Activity
# SNB-19 [9] = assay: Cytotoxicity against human SNB19 cells assessed as cell growth at 0.1 uM after 48 hrs by sulforhodamine B assay relative to control; conditions: SNB-19, 48 h, read-out: Activity
# UACC-257 = assay: Cytotoxicity against human UACC257 cells assessed as cell growth at 0.1 uM after 48 hrs by sulforhodamine B assay relative to control; conditions: UACC-257, 48 h, read-out: Activity
# RXF 393 [10] = assay: Cytotoxicity against human RXF393 cells assessed as cell growth at 0.1 uM after 48 hrs by sulforhodamine B assay relative to control; conditions: RXF 393, 48 h, read-out: Activity
# NCI-H522 [11] = assay: Cytotoxicity against human NCI-H522 cells assessed as cell growth at 1 uM after 48 hrs by sulforhodamine B assay relative to control; conditions: NCI-H522, 48 h, read-out: Activity
# ACHN [12] = assay: Cytotoxicity against human ACHN cells assessed as cell growth at 1 uM after 48 hrs by sulforhodamine B assay relative to control; conditions: read-out: Activity
# NCI-H322M [13] = assay: Cytotoxicity against human NCI-H322M cells assessed as cell growth at 10 uM after 48 hrs by sulforhodamine B assay relative to control; conditions: read-out: Activity
# NCI-H522 [14] = assay: Cytotoxicity against human NCI-H522 cells assessed as cell growth at 10 uM after 48 hrs by sulforhodamine B assay relative to control; conditions: NCI-H522, 48 h, read-out: Activity
# HCT-116 [15] = assay: Cytotoxicity against human HCT116 cells assessed as cell growth at 10 uM after 48 hrs by sulforhodamine B assay relative to control; conditions: HCT-116, 48 h, read-out: Activity
# SF-539 [16] = assay: Cytotoxicity against human SF539 cells assessed as cell growth at 10 uM after 48 hrs by sulforhodamine B assay relative to control; conditions: SF-539, 48 h, read-out: Activity
# SNB-19 [17] = assay: Cytotoxicity against human SNB19 cells assessed as cell growth at 10 uM after 48 hrs by sulforhodamine B assay relative to control; conditions: SNB-19, 48 h, read-out: Activity
# Malme-3M [18] = assay: Cytotoxicity against human MALME-3M cells assessed as cell growth at 10 uM after 48 hrs by sulforhodamine B assay relative to control; conditions: read-out: Activity
# UACC-62 [19] = assay: Cytotoxicity against human UACC62 cells assessed as cell growth at 10 uM after 48 hrs by sulforhodamine B assay relative to control; conditions: UACC-62, 48 h, read-out: Activity
# ACHN [20] = assay: Cytotoxicity against human ACHN cells assessed as cell growth at 10 uM after 48 hrs by sulforhodamine B assay relative to control; conditions: read-out: Activity
# HOP-62 = assay: Cytotoxicity against human HOP62 cells assessed as cell growth at 100 uM after 48 hrs by sulforhodamine B assay relative to control; conditions: HOP-62, 48 h, read-out: Activity
# NCI-H322M [21] = assay: Cytotoxicity against human NCI-H322M cells assessed as cell growth at 100 uM after 48 hrs by sulforhodamine B assay relative to control; conditions: read-out: Activity
# OVCAR-3 = assay: Cytotoxicity against human OVCAR3 cells assessed as cell growth at 100 uM after 48 hrs by sulforhodamine B assay relative to control; conditions: OVCAR-3, 48 h, read-out: Activity
# RXF 393 [22] = assay: Cytotoxicity against human RXF393 cells assessed as cell growth at 100 uM after 48 hrs by sulforhodamine B assay relative to control; conditions: RXF 393, 48 h, read-out: Activity
compound,measurement,setting,value
COc1ccc(C(=O)/C=C/c2cc(-c3ccc(OC)c(OC)c3)n[nH]2)cc1OC,GI50,CCRF-CEM [1],0.364 µM
same,TGI,CCRF-CEM [1],5.52 µM
same,GI50,K562,0.619 µM
same,TGI,K562,> 100 µM
same,GI50,NCI-H226,1.66 µM
same,TGI,NCI-H226,4.23 µM
same,GI50,SF-539 [2],0.525 µM
same,TGI,SF-539 [2],2.54 µM
same,GI50,SK-MEL-2,2.46 µM
same,TGI,SK-MEL-2,5.17 µM
same,GI50,UACC-62 [3],1.86 µM
same,TGI,UACC-62 [3],4.08 µM
same,GI50,OVCAR-4,1.92 µM
same,TGI,OVCAR-4,8.15 µM
same,GI50,RXF 393 [4],1.45 µM
same,TGI,RXF 393 [4],2.98 µM
same,GI50,MDA-MB-231,1.88 µM
same,TGI,MDA-MB-231,6.38 µM
same,GI50,BT-549,1.44 µM
same,TGI,BT-549,2.92 µM
same,growth at 0.01 µM,CCRF-CEM [5],99%
same,growth at 0.01 µM,SK-OV-3,83%
same,growth at 0.01 µM,IGROV-1,104%
same,growth at 0.01 µM,SK-MEL-5,96%
same,growth at 0.01 µM,Malme-3M [6],99%
same,growth at 0.01 µM,TK-10,98%
same,growth at 0.1 µM,CCRF-CEM [7],94%
same,growth at 0.1 µM,HCT-116 [8],88%
same,growth at 0.1 µM,HCT-15,95%
same,growth at 0.1 µM,SNB-19 [9],91%
same,growth at 0.1 µM,UACC-257,94%
same,growth at 0.1 µM,RXF 393 [10],84%
same,growth at 1 µM,NCI-H522 [11],82%
same,growth at 1 µM,ACHN [12],76%
same,growth at 10 µM,NCI-H322M [13],-9%
same,growth at 10 µM,NCI-H522 [14],-56%
same,growth at 10 µM,HCT-116 [15],-69%
same,growth at 10 µM,SF-539 [16],-51%
same,growth at 10 µM,SNB-19 [17],-48%
same,growth at 10 µM,Malme-3M [18],-27%
same,growth at 10 µM,UACC-62 [19],-57%
same,growth at 10 µM,ACHN [20],-54%
same,growth at 100 µM,HOP-62,-13%
same,growth at 100 µM,NCI-H322M [21],-48%
same,growth at 100 µM,OVCAR-3,-64%
same,growth at 100 µM,RXF 393 [22],-90%
COc1cc(C(=O)/C=C/c2cc(-c3cc(OC)c(OC)c(OC)c3)n[nH]2)cc(OC)c1OC,LC50 (concentration killing 50% of cells),CCRF-CEM [1],> 100 µM
same,LC50 (concentration killing 50% of cells),K562,> 100 µM
same,TGI,K562,> 100 µM
same,TGI,NCI-H226,3.05 µM
same,LC50 (concentration killing 50% of cells),SF-539 [2],6.23 µM
same,TGI,SF-539 [2],2.83 µM
same,LC50 (concentration killing 50% of cells),SK-MEL-2,8.32 µM
same,TGI,SK-MEL-2,4.04 µM
same,LC50,UACC-62 [3],7.6 µM
same,TGI,UACC-62 [3],3.68 µM
same,LC50,OVCAR-4,5.25 µM
same,TGI,OVCAR-4,2.76 µM
same,LC50 (concentration killing 50% of cells),RXF 393 [4],5.68 µM
same,TGI,RXF 393 [4],2.67 µM
same,LC50,MDA-MB-231,9.51 µM
same,TGI,MDA-MB-231,3.8 µM
same,LC50 (concentration killing 50% of cells),BT-549,5.6 µM
same,TGI,BT-549,2.96 µM
same,growth at 0.01 µM,CCRF-CEM [5],96%
same,growth at 0.01 µM,SK-OV-3,100%
same,growth at 0.01 µM,IGROV-1,104%
same,growth at 0.01 µM,SK-MEL-5,96%
same,growth at 0.01 µM,Malme-3M [6],100%
same,growth at 0.01 µM,TK-10,99%
same,growth at 0.1 µM,CCRF-CEM [7],94%
same,growth at 0.1 µM,HCT-116 [8],104%
same,growth at 0.1 µM,HCT-15,94%
same,growth at 0.1 µM,SNB-19 [9],90%
same,growth at 0.1 µM,UACC-257,91%
same,growth at 0.1 µM,RXF 393 [10],88%
same,growth at 1 µM,NCI-H522 [11],29%
same,growth at 1 µM,ACHN [12],89%
same,growth at 10 µM,NCI-H322M [13],-41%
same,growth at 10 µM,NCI-H522 [14],-97%
same,growth at 10 µM,HCT-116 [15],-99%
same,growth at 10 µM,SF-539 [16],-80%
same,growth at 10 µM,SNB-19 [17],-62%
same,growth at 10 µM,Malme-3M [18],-57%
same,growth at 10 µM,UACC-62 [19],-69%
same,growth at 10 µM,ACHN [20],-97%
same,growth at 100 µM,HOP-62,-100%
same,growth at 100 µM,NCI-H322M [21],-99%
same,growth at 100 µM,OVCAR-3,-98%
same,growth at 100 µM,RXF 393 [22],-98%
